Reference: patent US20220062173A1, “LIQUID COMPOSITIONS” (JOHNSON & JOHNSON CONSUMER INC., priority 2019, published 2022)
“Also recorded” adds a separate entry of the source.

Legend:
throat = assay: Additional cooling evaluation, targeted throat cooling; format: in vivo; settings: Yes/No
Description: (§1) Cooling sensate samples were requested from various flavor suppliers and were included into the formulation at a level recommended by the manufacturer and evaluated by various individuals in terms of cooling efficiency/intensity, area within the oral cavity where cooling could be felt, cooling onset time, and duration of cooling. It was interesting to see that all the sensate provided different degree of cooling and the area within the oral cavity where cooling could be felt was different.

[1] = solvents named; cited from earlier work
[2] = Solution conductivity measurement; format: physicochemical
Protocol: Conductivity of solutions containing Poloxamer-188 and Cooler #2 in purified water at different concentrations was measured using a MultiLab 4010-2 conductivity meter with an IDS 4320 Conductivity and Temperature Sensor.
It is important to note that the solutions turned cloudy once Cooler #2 was added to the solution, indicating formation of an emulsion. The turbidity of the solutions was not very different as the level of Cooler #2 was increased.
Conductivity of the Water-PG solutions containing 0.35% CMC and 0.35% HPMC was also measured in water and in combination with Cooler #2 and Poloxamer. The conductivity results are summarized below in Table 5.

oral cavity = assay: Taste-test evaluation of cooling sensates in base cough-cold liquid; format: in vivo; settings: for Cooling site: area within the oral cavity where cooling could be felt; for Cooling Intensity: sensate in base cough-cold liquid at the listed addition level
Protocol: Various polymeric additives were combined into a base cough-cold liquid formula to determine interaction, and included various grades of Avicel®, CMC, HPMC among others. A synergistic effect was observed when Poloxamer was also included in the formulation containing above mentioned rheology modifier and a cooling flavor. A cooling sensation in the back of the throat could be felt, and the sensation lasted longer (approximately 5-10 min or even longer in some instances). […] The presence of just the viscosity modifiers and no Poloxamer, the same flavor did provide targeted cooling, but the extent and duration was less.
as §1
Mixing Procedure: The following procedure was used to mix the materials in Table 3. The formulation was prepared by adding purified water to a suitable vessel. The Avicel RC591 was then added while mixing using a high shear mixer until dissolved, followed by addition of propylene glycol while mixing using a propeller mixer at about 500-1000 RPM. The rest of the ingredients were added and mixed at approximately 50-100 RPM for at least 30 minutes. After complete dissolution, the solution was heated using a water bath to a temperature between […] for 15 minutes while continuously stirring. The solution was cooled to room temperature before adding propylene glycol while mixing. The rest of the ingredients were added and mixed for at least 30 minutes.

Structure (SMILES) | Targeted Throat Cooling (throat) | Solubility [1] | Conductivity ([2]; 0.05% of Cooler #2, 0.4% Poloxamer, Water-5% propylene glycol, about 7.4 without cooler) | Effect on conductivity of the solution ([2]; purified water, Poloxamer-188 0.2% to 2.0%, 0.15% of Cooler #2) | Synergistic sensate effect (oral cavity) | Cooling site (oral cavity) | Cooling site (oral cavity; listed as IFF cooler #2) | Duration (oral cavity; duration of cooling) [min] | Overall (oral cavity; overall taste evaluation) | Cooling Intensity (oral cavity) | Onset time (oral cavity; values in secs) [s] | Duration (oral cavity; Table 3) [min] | Overall (oral cavity; Table 3) | Onset time (oral cavity; Table 3, values in secs) [s] | Cooling site (oral cavity; listed as Symcool®WS-3) | Onset time (oral cavity; in words) | Onset time (oral cavity; Table 3, values in min) [s] | Cooling site (oral cavity; listed as Symcool WS-5)
CC(C)[C@@H]1CC[C@@H](C)C[C@H]1OC(=O)CCCC(=O)O (stereo in doubt) [Cooler #2, Monomenthyl Glutarate] | Yes | Ethanol and Propylene Glycol, insoluble in Water | about 35 μS/cm | significant effect on the conductivity of the solution at lower concentrations of Poloxamer-188 | Did work, providing synergistic sensate effect | all the cooling was in the back of the throat | Throat | 7 to 9 | Cooling concentrated towards the back of the throat, intensity grows with time and duration longer than others | Mild to medium cooling | ~30 | – | – | – | – | – | – | –
CCNC(=O)[C@@H]1C[C@H](C)CC[C@H]1C(C)C [WS-3, N-ethyl 2-isopropyl-5-methylcyclohexanecarboxamide] | Yes | Propylene Glycol, ethanol, insoluble in water | – | – | Did work, providing synergistic sensate effect | cooling in mouth, tongue along with some cooling in the back of the throat | – | – | Intense cooling noticeable all around, tongue, and upper throat, sweeter sensation like menthol | Intense Cooling, more intense than WS-5 | ~10 | 4 to 5 | Intense | ~10 | towards the back on mouth, upper throat, and tongue | – | – | –
CC(C)[C@@H]1CC[C@@H](C)C[C@H]1O [Menthol, (1R,2S,5R)-2-isopropyl-5-methylcyclohexanol, reference compound] | No | – | – | – | – | Throat and some in oral cavity tongue and front of the mouth | – | – | Cooling noticeable on tongue and front of the mouth and throat | Intense cooling | – | 5 to 6 | Cooling | ~10 | – | Immediate | – | –
COc1ccc(NC(=O)[C@@H]2C[C@H](C)CC[C@H]2C(C)C)cc1 [WS 12, (1R,2S,5R)-N-(4-methoxyphenyl)-5-methyl-2-(1-methylethyl) cyclohexanecarboxamide] | No | – | – | – | – | mostly tongue and some in upper throat | – | – | Mild cooling noticeable on tongue and some back of the throat | Mild Cooling | – | 5 to 7 | Mild cooling | – | – | – | 60 to 120 | –
CNC(=O)C(C)(C(C)C)C(C)C [WS 23, 2-isopropyl-N,2,3-trimethylbutyramide] | No | – | – | – | – | tongue and front of the mouth | – | – | Mild cooling noticeable on tongue, and front of the mouth, tingling and nose cooling as you breath out | Mild Cooling, less than WS-3 and WS-5 | ~10 | 3 to 4 | Mild cooling | ~10 | – | – | – | –
CC(O)C(=O)O[C@@H]1C[C@H](C)CC[C@H]1C(C)C (stereo partly shown) [Symcool NAT, Menthyl Lactate] | Yes | Propylene glycol, ethanol | – | – | Did work, providing synergistic sensate effect | cooling in mouth, tongue along with some cooling in the back of the throat; also recorded: Tongue and some throat cooling | – | – | Liquorish taste and cooling in the mouth and towards the back of the throat, cooling in throat as you breath in, intensity grows with time | medium cooling | – | 5 to 6 | Medium | ~10 | – | immediate | – | –
CCOC(=O)CNC(=O)[C@@H]1C[C@H](C)CC[C@H]1C(C)C [WS-5, N-[(ethoxycarbonyl)methyl)-p-menthane-3-carboxamide] | Yes | Propylene Glycol, ethanol, insoluble in water | – | – | Did work, providing synergistic sensate effect | cooling in mouth, tongue along with some cooling in the back of the throat | – | 6 to 7 | Intense cooling noticeable all around the oral cavity, tongue, and upper throat | Intense Cooling | ~10 | 6 to 7 | Intense cooling | ~10 | – | – | – | towards the back on mouth, upper throat, and tongue
